Results on five molecules are retold here after patent publication US7452977B2, “Antibody to a kinase capable of site-specific phosphorylation of IκBα” (Millennium Pharmaceuticals, Inc., priority 1996, dated 2008).

Assay [1] addresses T1, IκBα kinase (Homo sapiens, UniProt O14920+O15111).
T1 construct: IC50 against IκBα kinase activity; FI; Km of IκBα kinase for ATP
Kind of assay: ELISA-based IκBα kinase assay (ELISA scheme 1), MEKK1-activated partially purified kinase. The class given is biochemical. The note with it: 10 μM inhibitor added to activated kinase before the biotinylated peptide substrate. The method, then:
IκBα kinase was prepared by first diluting S-100 HeLa cell extracts [1:10] with 50 mM HEPES pH 7.6 and 40% ammonium sulfate was added for 30 minutes on ice. Collected pellet was redissolved to a minimum volume, centrifuged, and filtered through a 0.22 μm filter. Sample was loaded onto a Superose-6 FPLC column equilibrated with 50 mM HEPES pH 7.6. 25 mM NaCl, 1 mM DTT, operated at 4° C. at 1 mL/min flow rate. Fractions were assayed for activity by the gel-shift assay. Active fractions peaked at ˜700 kD were collected, pooled, and protein concentration was determined.
ELISA scheme 1—Biotinylated peptide substrate at 500 μM was incubated with partially purified kinase alone, with 30 nM MEKK1Δ alone, or in combination for 2 hrs at 37° C. with 2.5 mM ATP, 10 mM DTT, 5 μM okadaic acid in the presence or absence of inhibitor. Kinase reactions were quenched by diluting [1:50] with PBS-BTE (PBS, 0.1% BSA, 0.05% Tween-20, 20 mM EDTA). […] Color development was performed with o-phenylenediamine dihydrochloride (Sigma FAST o-PD) and signals were recorded at 450 nm. Alternatively, peroxidase reaction was quenched with 3 N HCl and signals were read at 492 nm.
When control primary antibody which recognizes all IκBα species was used, all samples containing biotinylated peptide substrate produced peroxidase activity as detected by the o-PD conversion. […]
(In general: ELISA stands for enzyme-linked immunosorbent assay.)

Assay [2] deals with IκBα kinase. Briefly: Phosphorylation of IκBα by partially purified IκBα kinase (gel-based). The class given is biochemical, human. The method, then:
Unless otherwise indicated, phosphorylation of IκBα was usually carried out at 37° C. for 1 hour in a reaction volume of 10 μl containing: an ATP regenerating system (50 mM Tris-HCl, pH 7.6, 5 mM MgCl2, 2 mM ATP, 10 mM creatine phosphate, 3.5 units/ml creatine kinase, 0.6 units/ml inorganic pyrophosphatase), 0.5 μl of in vitro translated ^35S-labeled IκBα, 2 μg/ml of recombinant RelA homodimer (to form complex with IκBα), 3 μM okadaic acid, 60 μM ubiquitin, 50 nM E1 (rabbit), 1 μM UBC4 (yeast) or GST-UBCh5 (human), and 0.5-3 μl of IκBα kinase containing fractions. In some experiments, HeLa fraction I (1 mg/ml) was used as a source of E2s. At the end of each reaction, SDS sample buffer was added to quench the reaction, and the samples were analyzed by SDS-PAGE (9%) followed by flourography. Phosphorylation of IκBα was quantitated by PhosphorImager analysis. Ubiquitination of IκBα has been described previously (Chen, Z. J. et al., Genes & Dev. 9:1586-1597 (1995)).

A further assay relates to NF-κB. Kind of assay: Activation of NF-κB in vivo by agonists. The class given is cell-based. Conditions: agonists including PMA and ionomycin, TNF-α, and LPS.
In assay [3] the test system is IκBα. Kind of assay: Phosphorylation and ubiquitination of 35S-labeled IκBα in HeLa cell cytoplasmic extracts with okadaic acid. The note with it: 10 μM; in the presence of okadaic acid; FIG. 9. Type of assay: biochemical, human.
Text: ^35S-labeled IκBα was synthesized by in vitro translation, and used as a substrate for phosphorylation (bottom panel, short exposure) and ubiquitination (top panel, long exposure) assays in HeLa cell cytoplasmic extracts in the presence of okadaic acid (Chen et al., Genes and Dev. 9:1586-1597 (1995)). Various agents were included in the reaction to test their ability to inhibit the phosphorylation and ubiquitination of IκBα.
Assay [4] concerns IκBα. Conditions: previously shown (Beg 1993; Henkel 1993; Sun 1993); cited from earlier work.
In assay [5] the target is T1, IκBα kinase. Kind of assay: Polypeptide inhibition of 35S-IκBα phosphorylation by IκBα kinase (gel-based). Conditions: ubiquitination-activated kinase, 37° C., 40 min, FIG. 20. Type of assay: biochemical. The method, then:
An N-terminal fragment (residues 5-72) of IκBα was expressed in E. coli as a recombinant protein containing a poly-histidine (His6) tag at the N-terminus.Protein purification was accomplished by nickel affinity chromatography. As a control, the full-length IκBα (SEQ ID NO:9; Haskill (1991) Cell 65:1281) was also expressed and purified in a similar fashion.
Recombinant full-length IκBα or IκBα (5-72) was added at indicated concentration to 10 μl of reaction mixture containing an ATP regenerating system (50 mM Tris at pH 7.6, 5 mM MgCl2, 2 mM ATP, 10 mM phosphocreatine, 3.5 U/ml creatine phosphokinase, 0.6 U/ml inorganic pyrophosphatase), 60 μM Ubiquitin, 50 nM E1, 1 μM UBC4, 0.5 μl of in vitro translated ^35S-IκBα, 0.5 μl of IκBα kinase (fraction 19 from Superdex 200 column), and 3 μM okadaic acid. After incubation at 37° C. for 40 min., the reaction was quenched by the addition of SDS sample buffer, separated by electrophoresis on 9% SDS-polyacrylamide gel, and then analyzed by fluorography.

T1 sequence (O14920 whole entry): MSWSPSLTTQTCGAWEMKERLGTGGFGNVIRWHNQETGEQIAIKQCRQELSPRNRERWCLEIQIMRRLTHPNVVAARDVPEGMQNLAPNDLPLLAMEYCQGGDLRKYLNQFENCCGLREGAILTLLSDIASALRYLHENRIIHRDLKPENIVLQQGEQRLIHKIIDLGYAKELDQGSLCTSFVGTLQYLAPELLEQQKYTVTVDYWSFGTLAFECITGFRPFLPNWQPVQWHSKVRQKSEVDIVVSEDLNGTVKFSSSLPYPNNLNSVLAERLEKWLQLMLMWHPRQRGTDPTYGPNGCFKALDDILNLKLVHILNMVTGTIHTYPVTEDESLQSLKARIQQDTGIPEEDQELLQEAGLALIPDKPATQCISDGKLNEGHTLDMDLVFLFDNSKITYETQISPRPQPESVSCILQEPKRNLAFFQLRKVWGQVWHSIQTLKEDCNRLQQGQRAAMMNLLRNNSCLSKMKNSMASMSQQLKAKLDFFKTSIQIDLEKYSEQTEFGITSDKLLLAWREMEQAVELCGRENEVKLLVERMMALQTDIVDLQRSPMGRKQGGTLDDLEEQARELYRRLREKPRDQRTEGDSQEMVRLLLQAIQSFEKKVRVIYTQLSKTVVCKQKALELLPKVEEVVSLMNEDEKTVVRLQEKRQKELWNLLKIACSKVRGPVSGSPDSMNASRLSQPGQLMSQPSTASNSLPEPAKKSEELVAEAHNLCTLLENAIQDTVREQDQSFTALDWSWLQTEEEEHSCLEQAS
T1 sequence (O15111 whole entry): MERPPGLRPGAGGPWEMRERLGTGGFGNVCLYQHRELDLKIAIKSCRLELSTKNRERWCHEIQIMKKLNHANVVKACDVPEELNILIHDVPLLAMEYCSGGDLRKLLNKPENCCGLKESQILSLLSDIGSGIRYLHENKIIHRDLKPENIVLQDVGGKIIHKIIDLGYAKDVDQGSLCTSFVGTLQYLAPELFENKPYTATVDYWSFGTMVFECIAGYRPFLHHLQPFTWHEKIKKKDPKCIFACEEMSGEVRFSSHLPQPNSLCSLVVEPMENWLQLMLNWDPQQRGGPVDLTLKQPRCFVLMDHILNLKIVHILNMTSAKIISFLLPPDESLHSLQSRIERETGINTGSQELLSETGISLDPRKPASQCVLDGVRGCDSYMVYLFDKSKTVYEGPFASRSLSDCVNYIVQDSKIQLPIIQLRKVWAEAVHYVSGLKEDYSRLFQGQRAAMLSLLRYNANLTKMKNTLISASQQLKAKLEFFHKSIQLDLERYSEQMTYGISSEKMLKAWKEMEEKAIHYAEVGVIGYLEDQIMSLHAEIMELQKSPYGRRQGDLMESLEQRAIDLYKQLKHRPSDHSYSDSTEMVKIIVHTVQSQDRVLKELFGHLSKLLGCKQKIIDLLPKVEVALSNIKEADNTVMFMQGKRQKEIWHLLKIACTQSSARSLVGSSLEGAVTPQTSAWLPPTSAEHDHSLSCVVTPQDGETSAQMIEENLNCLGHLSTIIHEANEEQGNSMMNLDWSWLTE
T1 sequence (Q9Y6K9 whole entry partner): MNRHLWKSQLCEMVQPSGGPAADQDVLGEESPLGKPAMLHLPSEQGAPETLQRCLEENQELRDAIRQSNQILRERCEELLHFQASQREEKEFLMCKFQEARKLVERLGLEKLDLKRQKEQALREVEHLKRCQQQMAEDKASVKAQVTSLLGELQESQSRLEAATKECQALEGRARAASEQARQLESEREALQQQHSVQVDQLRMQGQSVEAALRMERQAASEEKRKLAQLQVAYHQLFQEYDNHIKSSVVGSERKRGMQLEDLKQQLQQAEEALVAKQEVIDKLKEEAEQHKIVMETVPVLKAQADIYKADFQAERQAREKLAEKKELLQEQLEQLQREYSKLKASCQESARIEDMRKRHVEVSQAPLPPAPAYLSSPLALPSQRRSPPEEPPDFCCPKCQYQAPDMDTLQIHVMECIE

Consider `COC(=O)[C@@]1(O)C[C@H]2O[C@]1(C)n1c3ccccc3c3c4c(c5c6ccccc6n2c5c31)C(=O)NC4` [K252a], for which the “inhibition of MEKK1 dependent kinase activity” value at IκBα kinase [1] is on record as “fully inhibited”. In the assay with IκBα kinase [2], the “inhibition of phosphorylation of IκBα by partially purified IκBα kinase” value is recorded as “inhibits”. Further, the “inhibition of the activation of NF-κB in vivo” value in the assay with NF-κB is “inhibit the activation of NF-κB in vivo”. In addition, in the assay with IκBα [3], the “inhibition of phosphorylation and ubiquitination of IκBα in HeLa cell extracts” value is recorded as “Inhibit”.
“N-tosyl-L-phenylalanine chloromethyl ketone [TPCK]”: the “inhibition of phosphorylation and degradation of IκBα in vivo” value in the assay on IκBα [4] is “inhibit”.
As for `Cc1ccc(S(=O)(=O)N[C@@H](CCCCN)C(=O)CCl)cc1` [TLCK, Nα-p-tosyl-L-lysine chloromethyl ketone], the “inhibition of phosphorylation and degradation of IκBα in vivo” value in the assay on IκBα [4] was “inhibit”.

B1: IκBα (5-72): N-terminal fragment (residues 5-72) of IκBα, recombinant from E. coli with N-terminal His6 tag (protein)
chain: HHHHHHAERPQEWAMEGPRDGLKKERLLDDRHDSGLDSMKDEEYEQMVKELQEIRLEPQEVPRGSEPWKQQLTE
Turning to B1, the “inhibition of phosphorylation of 35S-IκBα by purified IκBα kinase” value with IκBα kinase [5] was “inhibition”; in the assay with IκBα kinase [5] (listed as amino acid residues 5-72 of IκBα), “selectively inhibits”.

B2: full-length IκBα: recombinant full-length IκBα (SEQ ID NO:9), expressed and purified as control (protein, listed as Homo sapiens)
chain: MFQAAERPQEWAMEGPRDGLKKERLLDDRHDSGLDSMKDEEYEQMVKELQEIRLEPQEVPRGSEPWKQQLTEDGDSFLHLAIIHEEKALTMEVIRQVKGDLAFLNFQNNLQQTPLHLAVITNQPEIAEALLGAGCDPELRDFRGNTPLHLACEQGCLASVGVLTQSCTTPHLHSILKATNYNGHTCLHLASIHGYLGIVELLVSLGADVNAQEPCNGRTALHLAVDLQNPDLVSLLLKCGADVNRVTYQGYSPYQLTWGRPSTRIQQQLGQLTLENLQMLPESEDEESYDTESEFTEFTEDELPYDDCVFGGQRLTL
B2: the “inhibition of phosphorylation of 35S-IκBα by purified IκBα kinase” value with IκBα kinase [5] was “inhibition”.
